Results reported in patent US20100256104A1, “NOVEL AMIDE COMPOUNDS” (ASTRAZENECA R&D, priority 2009, published 2010).

biological target: T1, recombinant human GR (Homo sapiens, UniProt P04150); assay: Human Glucocorticoid Receptor (GR) Assay, fluorescence polarization competition with GS Red tracer; conditions: 2 hours at room temperature, 100% control 10 μM Dexamethasone, XLfit model 205, read-out: Inhibition of GR binding, IC50
T1 construct: purchased Panvera/Invitrogen P2812 (kit P2893)
T1 sequence (P04150 1-777): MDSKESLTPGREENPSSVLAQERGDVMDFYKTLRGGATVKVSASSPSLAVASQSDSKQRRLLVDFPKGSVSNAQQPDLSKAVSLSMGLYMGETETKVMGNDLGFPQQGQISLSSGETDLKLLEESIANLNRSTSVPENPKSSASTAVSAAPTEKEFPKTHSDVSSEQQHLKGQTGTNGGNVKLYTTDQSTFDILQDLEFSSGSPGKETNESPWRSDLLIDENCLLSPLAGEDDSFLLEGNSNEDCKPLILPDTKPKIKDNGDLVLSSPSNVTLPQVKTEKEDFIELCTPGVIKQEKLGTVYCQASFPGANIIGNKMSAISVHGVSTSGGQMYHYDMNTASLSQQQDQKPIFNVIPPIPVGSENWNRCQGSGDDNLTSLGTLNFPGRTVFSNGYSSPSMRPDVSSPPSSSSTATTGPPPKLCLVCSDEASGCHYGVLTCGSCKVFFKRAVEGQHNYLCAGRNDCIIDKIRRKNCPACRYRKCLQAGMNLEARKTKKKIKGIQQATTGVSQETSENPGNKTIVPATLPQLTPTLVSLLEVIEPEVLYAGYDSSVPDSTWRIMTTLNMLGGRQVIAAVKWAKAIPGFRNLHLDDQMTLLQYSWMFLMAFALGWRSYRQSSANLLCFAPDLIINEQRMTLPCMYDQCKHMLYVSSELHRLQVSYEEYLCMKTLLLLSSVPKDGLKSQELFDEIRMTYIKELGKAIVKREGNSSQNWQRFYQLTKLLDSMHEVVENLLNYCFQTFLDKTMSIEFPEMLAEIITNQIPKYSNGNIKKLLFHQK
Outline: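 Fluorescence polarization competition: recombinant human GR with GS Red tracer, stabilizing peptide and DTT in potassium phosphate/sodium molybdate/EDTA buffer. 2 h in dark at room temperature, read at ex 530/em 590 nm. Controls: DMSO (0%) and 10 μM dexamethasone (100%).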

IC50 [nM]	SMILES
2.4	C[C@]12Cc3cnn(-c4cccc(C(=O)NCc5cccnc5)c4)c3C=C1CC[C@@H]1[C@@H]2[C@@H](O)C[C@@]2(C)[C@H]1CC[C@]2(OC(=O)c1cocn1)C(=O)SCF [Example 39, (1R,3aS,3bS,10aR, 10bS,11S,12aS)-1-{[(fluoromethyl)sulfanyl]carbonyl}-11-hydroxy-10a,12a-dimethyl-7-{3-[(pyridin-3-ylmethyl)carbamoyl]-phenyl}-1,2,3,3a,3b, 4,5,7,10,10a,- 10b,11,12,12a-tetradecahydro-cyclopenta[5,6]naphtho [1,2-f]indazol-1-yl 1,3-oxazole-4-carboxylate]
3	COCC(=O)O[C@]1(C(=O)SCF)CC[C@H]2[C@@H]3CCC4=Cc5c(cnn5-c5cccc(C(=O)N[C@@H]6CCOC6)c5)C[C@]4(C)[C@H]3[C@@H](O)C[C@@]21C [Example 40, (1R,3aS,3bS,10aR, 10bS,11S,12aS)-1-{[(fluoromethyl)sulfanyl]carbonyl}-11-hydroxy-10a,12a-dimethyl-7-{3-[(3R)-tetrahydrofuran-3-ylcarbamoyl]phenyl}-1,2,3,3a,3b,4,5,7,10, 10a,10b,11,12,12a-tetradecahydrocyclo-penta[5,6]naphtho [1,2-f]indazol-1-yl methoxyacetate]
1.2	CCC(=O)O[C@]1(C(=O)SCF)[C@H](C)C[C@H]2[C@@H]3CCC4=Cc5c(cnn5-c5cccc(C(=O)NCC(N)=O)c5)C[C@]4(C)[C@@]3(F)[C@@H](O)C[C@@]21C [Example 41, (1R,2R,3aS,3bS, 10aS,10bR,11S,12aS)-7-{3-[(2-amino-2-oxoethyl)carbamoyl]phenyl}-10b-fluoro-1-{[(fluoromethyl)sulfanyl]carbonyl}-11-hydroxy-2,10a,12a-trimethyl-1,2,3,3a,3b,4,5,7,10, 10a,10b,11,12,12a-tetradecahydrocyclo-penta[5,6]naphtho [1,2-f]indazol-1-yl propanoate]
4.4	CCC(=O)O[C@]1(C(=O)SCF)[C@H](C)C[C@H]2[C@@H]3CCC4=Cc5c(cnn5-c5cccc(C(=O)N6CCC[C@@H]6C(N)=O)c5)C[C@]4(C)[C@@]3(F)[C@@H](O)C[C@@]21C [Example 42, (1R,2R,3aS,3bS, 10aS,10bR,11S,12aS)-7-(3-{[(2R)-2-carbamoyl-pyrrolidin-1-yl]carbonyl}phenyl)-10b-fluoro-1-{(fluoromethyl)sulfanyl] carbonyl}-11-hydroxy-2,10a,12a-trimethyl-1,2,3,3a,3b,4,5,7,10, 10a,10b,11,12,12a-tetradecahydrocyclo-penta[5,6]naphtho [1,2-f]indazol-1-yl propanoate]
1.9	CCC(=O)O[C@]1(C(=O)SCF)[C@H](C)C[C@H]2[C@@H]3CCC4=Cc5c(cnn5-c5cccc(C(=O)NCc6cccnc6)c5)C[C@]4(C)[C@@]3(F)[C@@H](O)C[C@@]21C [Example 43, (1R,2R,3aS,3bS, 10aS,10bR,11S,12aS)-10b-fluoro-1-{[(fluoromethyl)sulfanyl]carbonyl}-11-hydroxy-2,10a,12a-trimethyl-7-{3-[(pyridin-3-ylmethyl)carbamoyl]phenyl}-1,2,3,3a,3b,4,5,7,10, 10a,10b,11,12,12a-tetradecahydrocyclo-penta[5,6]naphtho [1,2-f]indazol-1-yl propanoate]
2.2	CCC(=O)O[C@]1(C(=O)SCF)CC[C@H]2[C@@H]3CCC4=Cc5c(cnn5-c5cccc(C(=O)NCC(N)=O)c5)C[C@]4(C)[C@@]3(F)[C@@H](O)C[C@@]21C [Example 44, (1R,3aS,3bS,10aS, 10bR,11S,12aS)-7-{3-[(2-amino-2-oxoethyl)carbamoyl]phenyl}-10b-fluoro-1-{[(fluoromethyl)sulfanyl]carbonyl}-11-hydroxy-10a,12a-dimethyl-1,2,3,3a,3b,4,5,7,10, 10a,10b,11,12,12a-tetradecahydrocyclo-penta[5,6]naphtho [1,2-f]indazol-1-yl propanoate]
5.3	COCC(=O)O[C@]1(C(=O)SCF)[C@H](C)C[C@H]2[C@@H]3CCC4=Cc5c(cnn5-c5cccc(C(=O)NCC(N)=O)c5)C[C@]4(C)[C@@]3(F)[C@@H](O)C[C@@]21C [Example 45, (1R,2R,3aS,3bS, 10aS,10bR,11S,12aS)-7-{3-[(2-amino-2-oxoethyl)carbamoyl]phenyl}-10b-fluoro-1-{[(fluoromethyl)sulfanyl]carbonyl}-11-hydroxy-2,10a,12a-trimethyl-1,2,3,3a,3b,4,5,7,10, 10a,10b,11,12,12a-tetradecahydrocyclo-penta[5,6]naphtho [1,2-f]indazol-1-yl methoxyacetate]
3.3	COCC(=O)O[C@]1(C(=O)SCF)[C@H](C)C[C@H]2[C@@H]3CCC4=Cc5c(cnn5-c5cccc(C(=O)NCc6cccnc6)c5)C[C@]4(C)[C@@]3(F)[C@@H](O)C[C@@]21C [Example 46, (1R,2R,3aS,3bS, 10aS,10bR,11S,12aS)-10b-fluoro-1-{[(fluoromethyl)sulfanyl]carbonyl}-11-hydroxy-2,10a,12a-trimethyl-7-{3-[(pyridin-3-ylmethyl)carbamoyl]phenyl}-1,2,3,3a,3b,4,5,7,10, 10a,10b,11,12,12a-tetradecahydrocyclo-penta[5,6]naphtho [1,2-f]indazol-1-yl methoxyacetate]
7.5	COCC(=O)O[C@]1(C(=O)SCF)[C@H](C)C[C@H]2[C@@H]3CCC4=Cc5c(cnn5-c5cccc(C(=O)N6CCC[C@@H]6C(N)=O)c5)C[C@]4(C)[C@@]3(F)[C@@H](O)C[C@@]21C [Example 47, (1R,2R,3aS,3bS, 10aS,10bR,11S,12aS)-7-(3-{[(2R)-2-carbamoyl-pyrrolidin-1-yl]carbonyl}phenyl)-10b-fluoro-1-{[(fluoromethyl)sulfanyl]carbonyl}-11-hydroxy-2,10a,12a-trimethyl-1,2,3,3a,3b,4,5,7,10, 10a,10b,11,12,12a-tetradecahydrocyclo-penta[5,6]naphtho [1,2-f]indazol-1-yl methoxyacetate]
6.3	CCC(=O)O[C@]1(C(=O)SCCO)CC[C@H]2[C@@H]3CCC4=Cc5c(cnn5-c5cccc(C(=O)N6CCC[C@@H]6C(N)=O)c5)C[C@]4(C)[C@H]3[C@@H](O)C[C@@]21C [Example 48, (1R,3aS,3bS,10aR, 10bS,11S,12aS)-7-(3-{[(2R)-2-carbamoyl-pyrrolidin-1-yl]carbonyl}phenyl)-11-hydroxy-1-{[(2-hydroxyethyl)sulfanyl]carbonyl}-10a,12a-dimethyl-1,2,3,3a,3b,4,5,7,10, 10a,10b,11,12,12a-tetradecahydrocyclo-penta[5,6]naphtho [1,2-f]indazol-1-yl propanoate]
12	C[C@]12Cc3cnn(-c4cccc(C(=O)N5CCC[C@@H]5C(N)=O)c4)c3C=C1CC[C@@H]1[C@@H]2[C@@H](O)C[C@@]2(C)[C@H]1CC[C@]2(OC(=O)c1cocn1)C(=O)SCC#N [Example 49, (1R,3aS,3bS,10aR, 10bS,11S,12aS)-7-(3-{[(2R)-2-carbamoyl-pyrrolidin-1-yl]carbonyl}phenyl)-1-{[(cyanomethyl)sulfanyl]carbonyl}-11-hydroxy-10a,12a-dimethyl-1,2,3,3a,3b,4,5,7,10, 10a,10b,11,12,12a-tetradecahydrocyclo-penta[5,6]naphtho [1,2-f]indazol-1-yl 1,3-oxazole-4-carboxylate]
